According to patent US8993523B2, “Dimeric IAP inhibitors” (Novartis AG, priority 2010, dated 2015):

Assays:
XIAP-BIR3 = target: T1, XIAP-BIR3 (Homo sapiens, UniProt P98170); experiment: Biacore SPR solution inhibition (competition with smac7mer peptide) binding assay, XIAP-BIR3; settings: 100 nM XIAP-BIR3, competition with immobilised smac7mer peptide, 25° C.; read-out: XIAP-BIR3 Binding Biacore (Competitive) EC50
T1 construct: with either 100 nM XIAP-BIR3 or 6 nM cIAP1-BIR3
Excerpt: (§1) The present method includes utility of a Surface plasmon resonance (SPR)-based biosensor (Biacore™ GE Healthcare, Uppsala, Sweden) to examine competition between the compounds of the present invention and smac7mer peptide for XIAP-BIR3 and cIAP1-BIR3 binding groove occupancy.
(§2) Biacore™ utilizes the phenomenon of surface plasmon resonance (SPR) to detect and measure binding interactions. In a typical Biacore experiment, one of the interacting molecules is immobilized on a flexible dextran matrix while the interacting partner is flowed over the derivatized surface. A binding interaction results in an increase in mass on the sensor surface and a corresponding direct change in the refractive index of the medium in the vicinity of the sensor surface. Changes in refractive index or signal are recorded in resonance units (R.U.) Signal changes due to association and dissociation of complexes are monitored in a non-invasive manner, continuously and in real-time, the results of which are reported in the form of a sensorgram.
(§3) Solution Inhibition Assay Format:
(§4) Biacore™ T100 (GE Healthcare, Uppsala, Sweden) was used to conduct all experiments reported herein. Sensor surface preparation and interaction analyses were performed at 25° C. Buffer and Biacore reagents were purchased from GE Healthcare. Running buffer containing 10 mM Hepes, pH7.4, 150 mM sodium chloride, 1.25 mM Dithiothreitol, 2% Dimethyl sulfoxide and 0.05% polysorbate 20 was utilized throughout all experiments.
(§5) Biotinylated smac7mer peptide was diluted to 10 nM in running buffer and captured onto a sensor surface pre-derivatized with streptavidin (sensor chip SA) towards peptide surface densities in the range 40-100 R.U. Peptide captured surfaces were blocked with 500 μM PEO2-Biotin (Thermo Scientific).
(§6) Interaction analyses were performed by first equilibrating each compound within a six point seven fold compound dilution series in the range 1 μM to 0.06 nM with either 100 nM XIAP-BIR3 or 6 nM cIAP1-BIR3 for at least one hour during instrument start-up procedures. Protein compound mixtures were then injected over reference and smac7mer peptide surfaces in series for 60 seconds at a flow-rate of 60 μL/min. Surface regeneration was performed at the end of each analysis cycle by a 30 second injection of 10 mM Glycine, pH 2.5, 1M Sodium Chloride, 0.05% polysorbate 20. Additionally, control compound samples and control XIAP-BIR3 or cIAP1-BIR3 samples were prepared and run at regular intervals to monitor surface and assay performance.
(§7) Data analyses were carried out using Biacore™ T100 evaluation software v2.0 to validate assay quality. Binding level report points were plotted versus logarithmic compound concentration values and analyzed in Graphpad prism 5 via non-linear regression using a one-site competition model. EC50 values were generated and used as a measure of inhibitor potency.

cIAP1-BIR3 = target: T2, cIAP1-BIR3 (Homo sapiens, UniProt Q13490); experiment: Biacore SPR solution inhibition (competition with smac7mer peptide) binding assay, cIAP1-BIR3; settings: 6 nM cIAP1-BIR3, competition with immobilised smac7mer peptide, 25° C.; read-out: CIAP-BIR3 Binding Biacore (Competitive) EC50
T2 construct: with either 100 nM XIAP-BIR3 or 6 nM cIAP1-BIR3
Excerpt: as §1, §2, §3, §4, §5, §6, §7

Panc3.27 tumor cells = experiment: Cellular assay: Panc3.27 tumor cell proliferation (Cell Titer Glo); format: cell-based; settings: Panc3.27 cells, 72 hour treatment, read-out: PANC proliferation IC50
Method: Cellular Assay—Treatment of Panc3.27 Tumor Cells with Dimeric IAP Antagonists
On day one adherent Panc3.27 cells are plated into two 96-well, clear, flat bottom plates. All wells in row A contain 90 uL of media. All wells in rows B-G contain a total volume of 90 uL per well and 4000 cells per well for Panc3.27 cell lines. Plates are then incubated overnight for 18 hours at 37° C., 5% CO2.
On day two cells are treated with the compounds of formula M-L-M′. Treatments are done in triplicate. The compounds are first serially diluted in DMSO and then added to media giving a final concentration of 0.2% DMSO when added to cells. Cells are treated with 10 uL of serially diluted compounds of formula M-L-M′ at a final concentration of 1000 nM, 200 nM, 40 nM, 8 nM, 1.6 nM, 0.32 nM, 0.06 nM, 0.013 nM, 0.0026 nM, and one untreated well. Plate two is used as a time zero plate.
To measure cell viability 50 uL of Cell Titer Glo (CTG) solution is added to row A, media only and B, cells and media. CTG is purchased from Promega Corporation catalog number G7573. The solution is prepared according to manufacturer's instructions. CTG measures the amount of ATP released from viable cells that is proportional to the number of cells in each well. After incubating for ten minutes with CTG plates are measured on a luminescent reader at 700 nm wavelength. Read time is approximately one second per well for a 96-well plate.
On day five 50 uL of CTG is added to plate one, rows A-G, incubated for 10 minutes at room temperature and read on a luminescent reader. Raw data is adjusted to account for the time zero plate as well as background noise. Triplicate values are averaged and percent control growth is calculated. Percent control growth is calculated using the following logical test: If well read data point (a) is greater than time zero data point (t=0), then 100*[(a)−(t=0)]/[(72 hour total growth)−(t=0)], OR 100*[(a)−(t=0)]/[(t=0)]. Data is represented by line graph with the concentration of compound on the x axis and percent control growth on the y axis.

T1 sequence (P98170 241-356 limits assumed): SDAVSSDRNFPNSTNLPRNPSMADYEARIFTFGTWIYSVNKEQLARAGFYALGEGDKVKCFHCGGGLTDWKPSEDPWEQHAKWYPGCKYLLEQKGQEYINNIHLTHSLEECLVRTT
T2 sequence (Q13490 260-352 limits assumed): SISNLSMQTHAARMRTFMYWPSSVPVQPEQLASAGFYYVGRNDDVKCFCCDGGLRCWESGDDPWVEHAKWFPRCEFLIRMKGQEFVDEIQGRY

| Compound | EC50 (XIAP-BIR3) | EC50 (cIAP1-BIR3) | IC50 (Panc3.27 tumor cells) |
| --- | --- | --- | --- |
| CN[C@@H](C)C(=O)N[C@H](C(=O)N1CCC[C@H]1c1cncc(-n2cc(C(=O)N3CCN(C(=O)c4cn(-c5cncc([C@@H]6CCCN6C(=O)[C@@H](NC(=O)[C@H](C)NC)C(C)C)c5)c5ccccc45)CC3)c3ccccc32)c1)C(C)C [Example 2O, (2S,2′S)—N,N′-((2S,2′S)-1,1′-((2S,2′S)-2,2′-(5,5′-(3,3′-(piperazine-1,4-diylbis(oxomethylene))bis(1H-indole-3,1-diyl))bis(pyridine-5,3-diyl))bis(pyrrolidine-2,1-diyl))bis(3-methyl-1-oxobutane-2,1-diyl))bis(2-(methylamino)propanamide)] | 39 nM | 2.17 to 2.18 nM | 0.54 to 1.37 nM |
| CN[C@@H](C)C(=O)N[C@H](C(=O)N1CCC[C@H]1c1cncc(-n2cc(C(=O)NCCCCNC(=O)c3cn(-c4cncc([C@@H]5CCCN5C(=O)[C@@H](NC(=O)[C@H](C)NC)C(C)C)c4)c4ccccc34)c3ccccc32)c1)C(C)C [Example 2J, (S,S,S)—N,N′-(butane-1,4-diyl)bis(1-(5-((S)-1-((S)-3-methyl-2-((S)-2-(methylamino)propanamido)butanol)pyrrolidin-2-yl)pyridin-3-yl)-1H-indole-3-carboxamide)] | 19.3 to 19.5 nM | 1.13 to 1.15 nM | 0.18 to 1.21 nM |
| [2H]C([2H])([2H])N[C@@H](C)C(=O)N[C@H](C(=O)N1CCC[C@H]1c1cncc(-n2ccc3c(C(=O)NCCCOCCOCCCNC(=O)c4cccc5c4ccn5-c4cncc([C@@H]5CCCN5C(=O)[C@@H](NC(=O)[C@H](C)NC([2H])([2H])[2H])C(C)C)c4)cccc32)c1)C(C)C [Example 3A, (S,S,S)—N,N′-(3,3′-(ethane-1,2-diylbis(oxy))bis(propane-3,1-diyl))bis(1-(5-((S)-1-((S)-3-methyl-2-((S)-2-(trideuteromethylamino)propanamido)butanoyl)-pyrrolidin-2-yl)pyridin-3-yl)-1H-indole-4-carboxamide)] | 44.7 nM | 0.59 nM | 0.12 to 0.17 nM |
| CN[C@@H](C)C(=O)N[C@H](C(=O)N1CCC[C@H]1c1cncc(-n2cc(C(=O)NCCNC(=O)c3cn(-c4cncc([C@@H]5CCCN5C(=O)[C@@H](NC(=O)[C@H](C)NC)C(C)C)c4)c4ccccc34)c3ccccc32)c1)C(C)C [Example 2F, (S,S,S)—N,N′-(ethane-1,2-diyl)bis(1-(5-((S)-1-((S)-3-methyl-2-((S)-2-(methylamino)propanamido)butanoyl)pyrrolidin-2-yl)pyridin-3-yl)-1H-indole-3-carboxamide)] | 23.5 to 55.2 nM | 0.21 to 0.86 nM | 0.08 to 0.28 nM |
| CN[C@@H](C)C(=O)N[C@H](C(=O)N1CCC[C@H]1c1cncc(-n2cc(C(=O)NCCCOCCOCCOCCCNC(=O)c3cn(-c4cncc([C@@H]5CCCN5C(=O)[C@@H](NC(=O)[C@H](C)NC)C(C)C)c4)c4ccccc34)c3ccccc32)c1)C(C)C [Example 2C, (S,S,S)—N,N′-(3,3′-(2,2′-oxybis(ethane-2,1-diyl)bis(oxy))bis(propane-3,1-diyl))bis(1-(5-((S)-1-((S)-3-methyl-2-((S)-2-(methylamino)propanamido)-butanoyl)pyrrolidin-2-yl)pyridin-3-yl)-1H-indole-3-carboxamide)] | 42 to 79.9 nM | 0.97 to 0.98 nM | 0.1 to 0.27 nM |
| CN[C@@H](C)C(=O)N[C@H](C(=O)N1CCC[C@H]1c1cncc(-n2cc(C(=O)N[C@H]3CC[C@H](NC(=O)c4cn(-c5cncc([C@@H]6CCCN6C(=O)[C@@H](NC(=O)[C@H](C)NC)C(C)C)c5)c5ccccc45)CC3)c3ccccc32)c1)C(C)C [Example 2M, 1-(5-((S)-1-((S)-3-methyl-2-((S)-2-(methylamino)propanamido)-butanoyl)pyrrolidin-2-yl)pyridin-3-yl)-N-((1S,4S)-4-(1-(5-((S)-1-((S)-3-methyl-2-((S)-2-(methylamino)propanamido)butanoyl)pyrrolidin-2-yl)pyridin-3-yl)-1H-indole-3-carboxamido)cyclohexyl)-1H-indole-3-carboxamide] | 26.1 to 26.4 nM | 0.7 to 0.71 nM | < 0.0026 nM |
| (S,S,S)—N,N′-(propane-1,3-diyl)bis(1-(5-((S)-1-((S)-3-methyl-2-((S)-2-(methylamino)propanamido)butanoyl)pyrrolidin-2-yl)pyridin-3-yl)-1H-indole-3-carboxamide) [Example 2A] | 49.8 to 52.2 nM | 0.6 to 1.1 nM | 0.14 to 2.86 nM |
| CN[C@@H](C)C(=O)N[C@H](C(=O)N1CCC[C@H]1c1cncc(-n2cc(C(=O)NCCCOCCCNC(=O)c3cn(-c4cncc([C@@H]5CCCN5C(=O)[C@@H](NC(=O)[C@H](C)NC)C(C)C)c4)c4ccccc34)c3ccccc32)c1)C(C)C [Example 2I] | 19.7 to 20.8 nM | 0.5 to 0.51 nM | 0.18 to 1.21 nM |
| CN[C@@H](C)C(=O)N[C@H](C(=O)N1CCC[C@H]1c1cncc(-n2ccc3c(C(=O)N[C@H]4CCCC[C@@H]4NC(=O)c4cccc5c4ccn5-c4cncc([C@@H]5CCCN5C(=O)[C@@H](NC(=O)[C@H](C)NC)C(C)C)c4)cccc32)c1)C(C)C [Example 1D, (S,S,S)—N,N′-((1S,2S)-cyclohexane-1,2-diyl)bis(1-(5-((S)-1-((S)-3-methyl-2-((S)-2-(methylamino)propanamido)butanoyl)pyrrolidin-2-yl)pyridin-3-yl)-1H-indole-4-carboxamide)] | 76 to 76.7 nM | 1.2 to 1.22 nM | 2.61 to 2.75 nM |
| CN[C@@H](C)C(=O)N[C@H](C(=O)N1CCC[C@H]1c1cncc(-n2cc(C(=O)NCCCOCCOCCCNC(=O)c3cn(-c4cncc([C@@H]5CCCN5C(=O)[C@@H](NC(=O)[C@H](C)NC)C(C)C)c4)c4ccccc34)c3ccccc32)c1)C(C)C [Example 2E, (S,S,S)—N,N′-(3,3′-(ethane-1,2-diylbis(oxy))bis(propane-3,1-diyl))bis(1-(5-((S)-1-((S)-3-methyl-2-((S)-2-(methylamino)propanamido)butanoyl)pyrrolidin-2-yl)pyridin-3-yl)-1H-indole-3-carboxamide)] | 47 to 54 nM | 0.52 to 1.83 nM | 0.26 to 0.44 nM |
| CN[C@@H](C)C(=O)N[C@H](C(=O)N1CCC[C@H]1c1cncc(-n2cc(C(=O)NCCCCCCNC(=O)c3cn(-c4cncc([C@@H]5CCCN5C(=O)[C@@H](NC(=O)[C@H](C)NC)C(C)C)c4)c4ccccc34)c3ccccc32)c1)C(C)C [Example 2L, (S,S,S)—N,N′-(hexane-1,6-diyl)bis(1-(5-((S)-1-((S)-3-methyl-2-((S)-2-(methylamino)propanamido)butanol)pyrrolidin-2-yl)pyridin-3-yl)-1H-indole-3-carboxamide)] | 25.5 to 25.8 nM | 1.71 to 1.73 nM | < 0.0026 nM |
